Converted amounts (≈) assume the structure as drawn.
Key:
Colo205 cells = experiment: Cell-based proliferation assay for determination of GI50 values (CyQUANT); set-up: species or system Human; settings: Homo sapiens, COLO 205, compound treatment 96 h, concentration for 50% inhibition of cell growth, read-out: Gl50 (Colo205)
Method: Human cancer cell lines (e.g. Colo205) were obtained from ATCC. Colo205 cells were cultivated in RPMI 1640 containing 2 mM L-Glutamine, 5% FBS, 1.0 mM Na Pyruvate. Colo205 cells were seeded in 96-wells plate at 5000 cells per well. The plates were incubated at 37°C, 5% CO2, for 24 h. Cells were treated with compounds at various concentrations for 96 h. Cell growth was then monitored using CyQUANT® cell proliferation assay (Invitrogen Pte Ltd). Dose response curves were plotted to determine Gl50 values for the compounds using XL-fit (ID Business Solution, Emeryville, CA). Gl50 is defined as the concentration of compound required for 50% inhibition of cell growth.

HDAC1 enzyme = target: T1, HDAC1 enzyme (Homo sapiens, UniProt Q13547); experiment: In vitro HDAC assay for determination of IC50 values (BIOMOL fluorescent-based HDAC activity assay); assay type: biochemical; settings: recombinant GST-HDAC1, 500 uM Flur de lys substrate, room temperature 2 h; read-out: IC50 (HDAC 1)
T1 construct: Amplification of human HDAC1 coding region from this cDNA library was cloned separately into the baculovirus expression pDEST20 vector; made in house; host or cells: SF9 insect cells (baculovirus, pDEST20 vector)
T1 sequence (Q13547 whole entry): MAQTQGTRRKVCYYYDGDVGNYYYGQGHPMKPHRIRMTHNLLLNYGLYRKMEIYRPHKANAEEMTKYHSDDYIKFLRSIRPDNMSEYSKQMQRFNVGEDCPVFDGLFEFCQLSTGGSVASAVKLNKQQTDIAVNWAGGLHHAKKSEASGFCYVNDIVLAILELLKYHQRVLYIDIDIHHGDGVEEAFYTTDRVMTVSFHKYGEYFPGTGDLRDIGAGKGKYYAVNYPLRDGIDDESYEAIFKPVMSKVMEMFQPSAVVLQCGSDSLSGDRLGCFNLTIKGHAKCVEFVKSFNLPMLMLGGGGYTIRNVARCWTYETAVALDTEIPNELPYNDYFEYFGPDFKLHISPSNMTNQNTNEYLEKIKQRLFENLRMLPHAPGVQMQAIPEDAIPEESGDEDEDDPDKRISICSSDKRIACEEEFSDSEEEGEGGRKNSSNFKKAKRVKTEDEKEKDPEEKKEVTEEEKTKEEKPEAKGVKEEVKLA
Method: Human cDNA library was prepared using cultured SW620 cells. Amplification of human HDAC1 coding region from this cDNA library was cloned separately into the baculovirus expression pDEST20 vector (GATEWAY Cloning Technology, Invitrogen Pte Ltd). The pDEST20-HDAC1 construct was confirmed by DNA sequencing. Recombinant baculovirus was prepared using the Bac-To-Bac method following the manufacturer's instruction (Invitrogen Pte Ltd).
Expression of GST-HDAC1 was done by infecting SF9 cells (Invitrogen Pte Ltd) with pDEST20-HDAC1 baculovirus at MOI=1 for 48 h. Soluble cell lysate was incubated with pre-equilibrated Glutathione Sepharose 4B beads (Amersham) at 4°C for 2 h. The beads were washed with PBS buffer for 3 times. The GST-HDAC1 protein was eluted by elution buffer containing 50 mM Tris, pH8.0, 150mM NaCl, 1% Triton X-100 and 10mM or 20mM reduced Glutathione. The purified GST-HDAC1 protein was dialyzed with HDAC storage buffer containing 10mM Tris, pH7.5, 100mM NaCl and 3mM MgCl2. 20% Glycerol was added to purified GST-HDAC1 protein before storage at -80°C.
The assay has been carried out in 96 well format and the BIOMOL fluorescent-based HDAC activity assay has been applied. The reaction composed of assay buffer, containing 25 mM Tris pH 7.5, 137 mM NaCl, 2.7 mM KCl, 1 mM MgCl2, 1 mg/ml BSA, tested compounds, an appropriate concentration of HDAC1 enzyme, 500 uM Flur de lys generic substrate for HDAC1 enzyme and subsequently was incubated at room temperature for 2 h. Flur de lys Developer was added and the reaction was incubated for 10 min. Briefly, deacetylation of the substrate sensitizes it to the developer, which then generates a fluorophore. The fluorophore is excited with 360 nm light and the emitted light (460 nm) is detected on a fluorometric plate reader (Tecan Ultra Microplate detection system, Tecan Group Ltd.).
The analytical software, Prism 4.0 (GraphPad Software Inc) has been used to generate IC50 from a series of data. IC50 is defined as the concentration of compound required for 50% inhibition of HDAC enzyme activity.

[1] = High Throughput Solubility Profiling (HTSP), kinetic solubility; assay type: physicochemical; settings: phosphate buffer with 2.5% DMSO, aqueous buffer, kinetic from dmso stock, phosphate buffer (pH 7), final concentration 250 µM
Method: Determining compound aqueous solubility has become an essential early measurement in the drug discovery process. Poor aqueous solubility can cause problems in many in vitro testing techniques, leading to unreliable results. The standard way to determine the solubility of a compound is to use the shake-flask solubility method. However, this method is inherently low-throughput and labour intensive.
10mM compound stock in DMSO was dissolved in phosphate buffer (pH 7) to give a final concentration of 250µM in 96-well plates in triplicate. The plate was shaken for 1.5 hours at 450 rpm and left to stand for 2 hours to allow the compound to reach its saturation point. The plate was then centrifuged at 2000g for 15 minutes. The supernatant was transferred and mixed with 20µL of DMSO in another 96-well plate. A calibration curve at 100µM and 250µM was prepared from the 10mM stock by dissolving in 60% methanol/phosphate buffer solution. LC/MS was used in the analysis and the area counts were obtained by using the Quantify Method Editor. Using the three point standard curve including zero, the results for solubility were reported. […]

[2] = Measurement of microsomal stability; assay type: in vitro ADME; settings: pooled human liver microsomes 1.0 mg/ml, test compound 5 µM, pH 7.4, incubation up to 60 min
Method: Metabolic stability measurements in vitro using liver microsomes aids in the prediction of in vivo hepatic clearance and compound stability towards phase I biotransformation reactions mediated by P450 isozymes.
Pooled human liver microsome (HLM) preparation was purchased from BD Gentest (BD BioSciences). The incubations consisted of test compound (5 µM) or control compound (Verapamil), NADPH-generating system solution A (25 mM NADP^+, 66 mM glucose-6-phosphate, 66 mM MgCl2 in H2O), NADPH-generating system solution B (40 U/ml glucose-6-phosphate dehydrogenase in 5 mM sodium citrate) and 1.0 mg/ml microsomal protein, respectively, in 100 mM potassium phosphate buffer (pH 7.4). Samples are incubated for 0, 5, 15, 30, 45, 60min. Reaction is terminated with ice-cold 80% acetonitrile and 20% DMSO. Samples are subsequently centrifuged at 4°C for 15 min at 2,000 rpm. 100 µL of the supernatant is transferred to the LC-MS plate for analysis. Before quantitative analysis, the compound is tuned in the LC/MS machine to get the optimized MS condition. Liquid chromatography is performed on a Luna C18 column (Phenomenex U.S.A, Torrance, CA) (2x50mm, […]). Percentage (%) remaining of compound (by area) of each time point is calculated with respect to time 0. Plot %remaining against time (min) to obtain the curve and use the Prism software to obtain the T1/2. […]

Row | SMILES | IC50 (Colo205 cells) [nM] | IC50 (HDAC1 enzyme) [nM] | solubility [1] [µM] | half-life at 5 µM [2] [h]
1 | CCCCc1nc2cc(C=CC(=O)NO)ccn2c1CNC(C)(C)C [Compound 5, 3-[2-Butyl-3-(tert-butylamino-methyl)-imidazo[1,2-a]pyridin-7-yl]-N-hydroxy-acrylamide] | 140 | 20 | 200 (≈ 68.9 µg/mL) | > 1
2 | CCCCN(CC)Cc1c(C)nc2cc(C=CC(=O)NO)ccn12 [Compound 29, 3-{3-[(Butyl-ethyl-amino)-methyl]-2-methyl-imidazo[1,2-a]pyridin-7-yl}-N-hydroxy-acrylamide] | 180 | 30 | – | 0.983
3 | CCCc1nc2cc(C=CC(=O)NO)ccn2c1CNC(C)(C)C [Compound 48, 3-[3-(tert-Butylamino-methyl)-2-propyl-imidazo[1,2-a]pyridin-7-yl]-N-hydroxy-acrylamide] | 180 | 40 | 168 (≈ 55.5 µg/mL) | > 1
4 | CCN(CCC(C)C)Cc1c(C)nc2cc(C=CC(=O)NO)ccn12 [Compound 49, 3-(3-{[Ethyl-(3-methyl-butyl)-amino]-methyl}-2-methyl-imidazo[1,2-a]pyridin-7-yl)-N-hydroxy-acrylamide] | 110 | – | > 250 | > 1
5 | CCN(CCC(C)(C)C)Cc1c(C)nc2cc(C=CC(=O)NO)ccn12 [Compound 50, 3-(3-{[(3,3-Dimethyl-butyl)-ethyl-amino]-methyl}-2-methyl-imidazo[1,2-a]pyridin-7-yl)-N-hydroxy-acrylamide] | 160 | 50 | – | 0.75
6 | CCCCN(CC)Cc1c(CC)nc2cc(C=CC(=O)NO)ccn12 [Compound 63, 3-{3-[(Butyl-ethyl-amino)-methyl]-2-ethyl-imidazo[1,2-a]pyridin-7-yl}-N-hydroxy-acrylamide] | 180 | 50 | – | > 1
7 | CCc1nc2cc(C=CC(=O)NO)ccn2c1CN(CC)CCC(C)C [Compound 64, 3-(2-Ethyl-3-{[ethyl-(3-methyl-butyl)-amino]-methyl}-imidazo[1,2-a]pyridin-7-yl)-N-hydroxy-acrylamide] | 100 | 20 | – | > 1
8 | CC(C)CCc1nc2cc(C=CC(=O)NO)ccn2c1CNC(C)(C)C [Compound 65, 3-[3-(tert-Butylamino-methyl)-2-(3-methyl-butyl)-imidazo[1,2-a]pyridin-7-yl]-N-hydroxy-acrylamide] | 100 | 20 | – | > 1
9 | CCCCN(CC)Cc1c(CCC(C)C)nc2cc(C=CC(=O)NO)ccn12 [Compound 66, 3-[3-[(Butyl-ethyl-amino)-methyl]-2-(3-methyl-butyl)-imidazo[1,2-a]pyridin-7-yl]-N-hydroxy-acrylamide] | 160 | 40 | – | –
10 | CCN(CCC(C)C)Cc1c(CCC(C)C)nc2cc(/C=C/C(=O)NO)ccn12 [Compound 67, 3-[3-{[Ethyl-(3-methyl-butyl)-amino]-methy}-2-(3-methyl-butyl)-imidazo[1,2-a]pyridin-7-yl]-N-hydroxy-acrylamide] | 130 | 30 | – | –
11 | CCN(CCC(C)(C)C)Cc1c(CCC(C)C)nc2cc(C=CC(=O)NO)ccn12 [Compound 68, 3-[3-{[(3,3-Dimethyl-butyl)-ethyl-amino]-methyl}-2-(3-methyl-butyl)-imidazo[1,2-a]pyridin-7-yl]-N-hydroxy-acrylamide] | 130 | 40 | – | –
